Results: patent US7994172B2, “[1H-pyrazolo[3, 4-D]pyrimidin-4-yl]-piperidine or -piperazine compounds as serine-theoronine kinase modulators (P70s6k, Atk1 and Atk2) for the treatment of immunological, inflammatory and proliferative diseases” (Exelixis, Inc., priority 2004, dated 2011)

Assays:
Format in all cases: biochemical
[1] = biological target: T1, human Akt2 kinase (kinase domain residues K146-R480) (Homo sapiens, UniProt P31751); assay: Akt2 kinase assay, Luciferase-Coupled Chemiluminescent Kinase assay (LCCA); details: 2 μM ATP, 10 nM Akt2; read-out: Akt-2 inhibition IC50
T1 construct: human Akt2 kinase domain residues K146-R480; made in house
Protocol: Kinase activity and compound inhibition are investigated using one or more of the three assay formats described below. The ATP concentrations for each assay are selected to be close to the Michaelis-Menten constant (KM) for each individual kinase. Dose-response experiments are performed at 10 different inhibitor concentrations in a 384-well plate format. The data are fitted to four-parameter equation (2) below; where Y is the observed signal, X is the inhibitor concentration, Min is the background signal in the absence of enzyme (0% enzyme activity), Max is the signal in the absence of inhibitor (100% enzyme activity), IC50 is the inhibitor concentration at 50% enzyme inhibition and H represents the empirical Hill's slope to measure the cooperativity. Typically H is close to unity. Y=Min+(Max−Min)/(1+(X/IC50)^H) Equation (2) p70S6 Kinase Assay
Biochemical activity of Akt2 kinase was assessed using a Luciferase-Coupled Chemiluminescent Kinase assay (LCCA) format. Kinase activity was measured as the percent ATP remaining following the kinase reaction. Remaining ATP was detected by luciferase-luciferin-coupled chemiluminescence. Specifically, the reaction was initiated by mixing test compounds, 2 μM ATP, 5 μM crosstide peptide and 10 nM Akt2 (baculovirus expressed human Akt2 kinase domain residues K146-R480) in a 20 uL assay buffer (20 mM Tris-HCL pH 7.5, 10 mM MgCl2, 0.03% Triton X-100, 1 mM DTT, 3 mM MnCl2). The mixture is incubated at ambient temperature for 2 hours after which 20 μL luciferase-luciferin mix is added and the chemiluminescent signal read using a Wallac Victor2 reader. The luciferase-luciferin mix consists of 50 mM HEPES, pH 7.8, 8.5 μg/mL oxalic acid (pH 7.8), 5 (or 50) mM DTT, 0.4% Triton X-100, 0.25 mg/mL coenzyme A, 63 uM AMP, 28 μg/mL luciferin and 40,000 units/mL luciferase.

[2] = biological target: T2, human p70S6 kinase (p70S6K, kinase domain residues 1-421, T412E mutation) (Homo sapiens, UniProt P23443, T412E); assay: p70S6 kinase assay, Luciferase-Coupled Chemiluminescent Kinase assay (LCCA); details: 5 μM ATP, 12 nM p70S6K; read-out: p70S6K inhibition IC50
T2 construct: human p70S6 kinase domainresidues 1-421, containing a T412E mutation; made in house
In short: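 Baculovirus-expressed kinase domain (12 nM) reacted 2 h at ambient temperature with 5 μM ATP and 5 μM RRRLSSLRA peptide. Buffer was Tris pH 7.5 with MgCl2, MnCl2, DTT and Triton X-100. Remaining ATP was read by luciferase-luciferin chemiluminescence. IC50 came from 10-point dose-response with a four-parameter Hill fit.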

[3] = biological target: T3, human Akt1 kinase (kinase domain residues R144-A480, activated with PDK1) (Homo sapiens, UniProt P31749); assay: Akt1 kinase assay, Luciferase-Coupled Chemiluminescent Kinase assay (LCCA); details: 1 μM ATP, 1.3 nM Akt1; read-out: Akt-1 inhibition IC50
T3 construct: made in house
In short: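 Baculovirus-expressed PDK1-activated Akt1 kinase domain (R144-A480), 1.3 nM, with 5 μM crosstide and 1 μM ATP in Tris pH 7.5 with MgCl2/MnCl2, 3 h at ambient temperature. Remaining ATP read by luciferase-luciferin chemiluminescence; 10-point IC50 from four-parameter fit.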

T2 sequence (P23443 1-421 T412E): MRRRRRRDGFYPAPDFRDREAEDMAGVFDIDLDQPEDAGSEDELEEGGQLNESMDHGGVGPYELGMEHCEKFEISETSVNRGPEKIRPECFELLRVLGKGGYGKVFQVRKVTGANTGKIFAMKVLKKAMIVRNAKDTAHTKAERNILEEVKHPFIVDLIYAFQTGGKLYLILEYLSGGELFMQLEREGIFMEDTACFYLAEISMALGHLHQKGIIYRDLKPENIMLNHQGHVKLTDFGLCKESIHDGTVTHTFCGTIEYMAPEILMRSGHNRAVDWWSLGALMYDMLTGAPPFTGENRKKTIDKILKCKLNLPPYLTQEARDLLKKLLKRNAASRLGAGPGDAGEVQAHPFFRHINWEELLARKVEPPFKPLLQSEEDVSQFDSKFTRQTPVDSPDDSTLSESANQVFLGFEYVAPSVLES
T1 sequence (P31751 146-480): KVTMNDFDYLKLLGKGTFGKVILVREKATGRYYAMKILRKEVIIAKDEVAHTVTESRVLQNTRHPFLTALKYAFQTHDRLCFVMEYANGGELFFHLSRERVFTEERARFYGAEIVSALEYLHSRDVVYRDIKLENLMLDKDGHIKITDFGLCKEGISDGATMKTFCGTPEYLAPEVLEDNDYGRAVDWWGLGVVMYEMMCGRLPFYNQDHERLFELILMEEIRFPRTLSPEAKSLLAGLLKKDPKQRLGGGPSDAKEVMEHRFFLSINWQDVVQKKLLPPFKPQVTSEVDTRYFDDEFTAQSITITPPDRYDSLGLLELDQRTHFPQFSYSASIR
T3 sequence (P31749 144-480): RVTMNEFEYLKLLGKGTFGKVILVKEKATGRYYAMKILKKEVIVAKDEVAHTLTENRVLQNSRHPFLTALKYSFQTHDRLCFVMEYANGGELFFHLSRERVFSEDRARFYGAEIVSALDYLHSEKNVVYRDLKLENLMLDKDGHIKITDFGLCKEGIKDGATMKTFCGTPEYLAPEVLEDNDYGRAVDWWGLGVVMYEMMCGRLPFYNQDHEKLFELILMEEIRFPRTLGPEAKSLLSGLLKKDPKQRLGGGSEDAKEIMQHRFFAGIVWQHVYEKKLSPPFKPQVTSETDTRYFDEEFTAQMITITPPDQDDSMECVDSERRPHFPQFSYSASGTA

| SMILES | IC50 [1] | IC50 [2] | IC50 [3] |
| --- | --- | --- | --- |
| Fc1ccc(CN2CCN(c3ncnc4[nH]nc(Br)c34)CC2)c(Cl)c1 [Entry 48, 3-bromo-4-{4-[(2-chloro-4-fluorophenyl)methyl]piperazin-1-yl}-1H-pyrazolo[3,4-d]pyrimidine] | > 2000 nM | < 50 nM | > 2000 nM |
| Brc1n[nH]c2ncnc(N3CCN(Cc4ccccc4)CC3)c12 [Entry 50, 3-bromo-4-[4-(phenylmethyl)piperazin-1-yl]-1H-pyrazolo[3,4-d]pyrimidine] | > 2000 nM | 50 to 500 nM | > 2000 nM |
| O=C(CN1CCN(c2ncnc3[nH]nc(Br)c23)CC1)Nc1ccccn1 [Entry 51, 2-[4-(3-bromo-1H-pyrazolo[3,4-d]pyrimidin-4-yl)piperazin-1-yl]-N-pyridin-2-ylacetamide] | > 2000 nM | 50 to 500 nM | > 2000 nM |
| Brc1n[nH]c2ncnc(N3CCN(Cc4ncc[nH]4)CC3)c12 [Entry 52, 3-bromo-4-[4-(1H-imidazol-2-ylmethyl)piperazin-1-yl]-1H-pyrazolo[3,4-d]pyrimidine] | > 2000 nM | 50 to 500 nM | > 2000 nM |
| Brc1n[nH]c2ncnc(N3CCN(Cc4cccc(Oc5ccccc5)c4)CC3)c12 [Entry 53, 3-bromo-4-(4-{[3-(phenyloxy)phenyl]methyl}piperazin-1-yl)-1H-pyrazolo[3,4-d]pyrimidine] | > 2000 nM | 50 to 500 nM | > 2000 nM |
| Cc1cccc(CN2CCN(c3ncnc4[nH]nc(Br)c34)CC2)c1 [Entry 54, 3-bromo-4-{4-[(3-methylphenyl)methyl]piperazin-1-yl}-1H-pyrazolo[3,4-d]pyrimidine] | > 2000 nM | 50 to 500 nM | > 2000 nM |
| N#Cc1cccc(CN2CCN(c3ncnc4[nH]nc(Br)c34)CC2)c1 [Entry 55, 3-{[4-(3-bromo-1H-pyrazolo[3,4-d]pyrimidin-4-yl)piperazin-1-yl]methyl}benzonitrile] | > 2000 nM | 50 to 500 nM | > 2000 nM |
| Fc1cccc(Cl)c1CN1CCN(c2ncnc3[nH]nc(Br)c23)CC1 [Entry 56, 3-bromo-4-{4-[(2-chloro-6-fluorophenyl)methyl]piperazin-1-yl}-1H-pyrazolo[3,4-d]pyrimidine] | > 2000 nM | 50 to 500 nM | > 2000 nM |
| CC(c1ccccc1)N1CCN(c2ncnc3[nH]nc(Br)c23)CC1 (stereo not drawn) [Entry 57, 3-bromo-4-[4-(1-phenylethyl)piperazin-1-yl]-1H-pyrazolo[3,4-d]pyrimidine] | > 2000 nM | 50 to 500 nM | > 2000 nM |
| Brc1n[nH]c2ncnc(N3CCN(Cc4ccncc4)CC3)c12 [Entry 58, 3-bromo-4-[4-(pyridin-4-ylmethyl)piperazin-1-yl]-1H-pyrazolo[3,4-d]pyrimidine] | > 2000 nM | 50 to 500 nM | > 2000 nM |
| Brc1n[nH]c2ncnc(N3CCN(Cc4cccnc4)CC3)c12 [Entry 60, 3-bromo-4-[4-(pyridin-3-ylmethyl)piperazin-1-yl]-1H-pyrazolo[3,4-d]pyrimidine] | > 2000 nM | 50 to 500 nM | > 2000 nM |
| COc1ccc(CN2CCN(c3ncnc4[nH]nc(Br)c34)CC2)c(OC)c1OC [Entry 61, 3-bromo-4-(4-{[2,3,4-tris(methyloxy)phenyl]methyl}piperazin-1-yl)-1H-pyrazolo[3,4-d]pyrimidine] | > 2000 nM | 50 to 500 nM | > 2000 nM |
| Brc1n[nH]c2ncnc(N3CCN(Cc4cccc(OCc5ccccc5)c4)CC3)c12 [Entry 62, 3-bromo-4-[4-({3-[(phenylmethyl)oxy]phenyl}methyl)piperazin-1-yl]-1H-pyrazolo[3,4-d]pyrimidine] | > 2000 nM | 50 to 500 nM | > 2000 nM |
| Brc1n[nH]c2ncnc(N3CCN(Cc4cccc5ccccc45)CC3)c12 [Entry 63, 3-bromo-4-[4-(naphthalen-1-ylmethyl)piperazin-1-yl]-1H-pyrazolo[3,4-d]pyrimidine] | > 2000 nM | 50 to 500 nM | > 2000 nM |
| Clc1ccc(-c2ccc(CN3CCN(c4ncnc5[nH]nc(Br)c45)CC3)o2)cc1 [Entry 64, 3-bromo-4-(4-{[5-(4-chlorophenyl)furan-2-yl]methyl}piperazin-1-yl)-1H-pyrazolo[3,4-d]pyrimidine] | > 2000 nM | 500 to 2000 nM | > 2000 nM |
| O=C(c1ccco1)N1CCN(c2ncnc3[nH]nc(Br)c23)CC1 [Entry 66, 3-bromo-4-[4-(furan-2-ylcarbonyl)piperazin-1-yl]-1H-pyrazolo[3,4-d]pyrimidine] | > 2000 nM | 500 to 2000 nM | > 2000 nM |
| O=C(c1ccc2cc[nH]c2c1)N1CCN(c2ncnc3[nH]nc(Br)c23)CC1 [Entry 67, 3-bromo-4-[4-(1H-indol-6-ylcarbonyl)piperazin-1-yl]-1H-pyrazolo[3,4-d]pyrimidine] | > 2000 nM | 500 to 2000 nM | > 2000 nM |
| Brc1n[nH]c2ncnc(N3CCN(CCc4cccs4)CC3)c12 [Entry 68, 3-bromo-4-{4-[2-(2-thienyl)ethyl]piperazin-1-yl}-1H-pyrazolo[3,4-d]pyrimidine] | > 2000 nM | 500 to 2000 nM | > 2000 nM |
| Brc1n[nH]c2ncnc(N3CCN(CCCN4CCCC4)CC3)c12 [Entry 69, 3-bromo-4-[4-(3-pyrrolidin-1-ylpropyl)piperazin-1-yl]-1H-pyrazolo[3,4-d]pyrimidine] | > 2000 nM | 500 to 2000 nM | > 2000 nM |
| Brc1n[nH]c2ncnc(N3CCN(CC4CCCCC4)CC3)c12 [Entry 70, 3-bromo-4-[4-(cyclohexylmethyl)piperazin-1-yl]-1H-pyrazolo[3,4-d]pyrimidine] | > 2000 nM | 500 to 2000 nM | > 2000 nM |
| Clc1c2ccccc2c(CN2CCN(c3ncnc4[nH]nc(Br)c34)CC2)c2ccccc12 [Entry 71, 3-bromo-4-{4-[(10-chloroanthracen-9-yl)methyl]piperazin-1-yl}-1H-pyrazolo[3,4-d]pyrimidine] | > 2000 nM | 500 to 2000 nM | > 2000 nM |
| CCC(C)N1CCN(c2ncnc3[nH]nc(Br)c23)CC1 (stereo not drawn) [Entry 72, 3-bromo-4-[4-(1-methylpropyl)piperazin-1-yl]-1H-pyrazolo[3,4-d]pyrimidine] | > 2000 nM | 500 to 2000 nM | > 2000 nM |
| COc1cc(OC)nc(CN2CCN(c3ncnc4[nH]nc(Br)c34)CC2)n1 [Entry 73, 4-(4-{[4,6-bis(methyloxy)pyrimidin-2-yl]methyl}piperazin-1-yl)-3-bromo-1H-pyrazolo[3,4-d]pyrimidine] | > 2000 nM | 500 to 2000 nM | > 2000 nM |
| COCCN1CCN(c2ncnc3[nH]nc(Br)c23)CC1 [Entry 74, 3-bromo-4-{4-[2-(methyloxy)ethyl]piperazin-1-yl}-1H-pyrazolo[3,4-d]pyrimidine] | > 2000 nM | 500 to 2000 nM | > 2000 nM |
| O=C(CN1CCN(c2ncnc3[nH]nc(Br)c23)CC1)N1CCOCC1 [Entry 75, 3-bromo-4-[4-(2-morpholin-4-yl-2-oxoethyl)piperazin-1-yl]-1H-pyrazolo[3,4-d]pyrimidine] | > 2000 nM | > 2000 nM | > 2000 nM |
| COCCCN1CCN(c2ncnc3[nH]nc(Br)c23)CC1 [Entry 76, 3-bromo-4-{4-[3-(methyloxy)propyl]piperazin-1-yl}-1H-pyrazolo[3,4-d]pyrimidine] | > 2000 nM | > 2000 nM | > 2000 nM |
| COc1cc(OC)nc(C(c2ccccc2)N2CCN(c3ncnc4[nH]nc(Br)c34)CC2)n1 (stereo not drawn) [Entry 77, 4-{4-[[4,6-bis(methyloxy)pyrimidin-2-yl](phenyl)methyl]piperazin-1-yl}-3-bromo-1H-pyrazolo[3,4-d]pyrimidine] | > 2000 nM | > 2000 nM | > 2000 nM |
